Assay results taken from US6017933A, “Mannich bases of conjugated styryl ketones” (University of Saskatchewan Technologies Inc., priority 1999, dated 2000).
Entries after “also recorded” stand apart in the source; their conditions may differ.

What was measured:
L1210 cells = assay: Cytotoxicity, murine L1210 leukemic cells; format: cell-based; details: Mus musculus, mean
human WiDr colon cancer = details: hydrobromide salt; human WiDr colon cancer in vitro; cited from earlier work
CEM cells = assay: Cytotoxicity, CEM human T-lymphocytes; details: for IC50: Homo sapiens, CCRF-CEM, read-out: CEM cells IC50; for TIL1210 (CEM cells): IC50 T-lymphocytes (CEM)/IC50 L1210; for TIP388 (CEM cells): IC50 T-lymphocytes (CEM)/IC50 P388
Molt 4/C8 cells = assay: Cytotoxicity, Molt 4/C8 human T-lymphocytes; details: for TIL1210 (Molt 4/C8 cells): IC50 T-lymphocytes (Molt 4/C8)/IC50 L1210; for TIP388 (Molt 4/C8 cells): IC50 T-lymphocytes (Molt 4/C8)/IC50 P388; for IC50: read-out: Molt 4/C8 cells IC50
P388 cells = assay: Cytotoxicity, murine P388 leukemic cells (P388 D1); details: read-out: P388 cells IC50
[1] = test system: P388 lymphocytic leukemia; assay: Murine P388 lymphocytic leukemia in vivo screen
Protocol: In order to evaluate whether these promising results could be translated into in vivo activity, two representative compounds 9d and 10a were chosen. […] These two compounds were examined in the murine P388 screen and against certain human tumors in athymic mice.
(§1) The compounds were examined by the Developmental Therapeutics Program, National Cancer Institute, U.S.A. The murine P388 lymphocytic leukemia assay was conducted by a reported known method and the maximum ILS figures for 9d and 10a were 5 and 20% respectively using doses of 54 and 6.7 mg/kg respectively. An increase of 20% or more in the life spans is considered to be statistically significant. A reference drug 5-fluorouracil has an ILS of >35 using a dose of 20 mg/kg when given intraperitoneally for five days. Passage of human tumors in athymic mice was undertaken by a known method. No definitions of activity are available but as a general rule compounds causing a 60% reduction in tumor weights in one of these screens would be evaluated further.

COLO 205 = COLO 205 human colon tumor xenograft in athymic mice; format: in vivo
Protocol: as §1

SW-620 = SW-620 human colon tumor xenograft in athymic mice; format: in vivo; details: 80 mg/kg
Protocol: as §1

NCI-H522 = NCI-H522 human non-small cell lung tumor xenograft in athymic mice; format: in vivo; details: 80 mg/kg
Protocol: as §1

LOX IMVI = LOX IMVI human melanoma xenograft in athymic mice; format: in vivo, human tumor in athymic mice; details: 80 mg/kg
Protocol: as §1

human Jurkat T cells [2] = assay: Growth inhibition of Jurkat T cells, trypan blue exclusion test; format: cell-based; details: read-out: growth of Jurkat T cells inhibited by 50% (IC50), 48 hours, 37° C., trypan blue
Protocol: All cell cultures used were maintained in RPMI 1640 medium, pH 7.4 supplanted with 10% fetal bovine serum and 50 μg/ml of gentamycin in 25 ml culture flasks at 37° C. in a humidified gas mixture of 5% carbon dioxide balanced with air and were passaged three times a week.
(§2) Cell viability was determined by the trypan blue exclusion test according to a literature procedure (Duke and Cohen, 1992). […] A flask containing ~10^6 cells/ml and 8 or […] of DMSO was used as the control. […] After 48 hours, cells were counted using a haemocytometer. The percentage of growth inhibition was calculated as follows: (C-T/C)×100 where C is the mean cell number in the control and T is the mean cell number in each treatment. […] All experiments were performed in triplicate.

[3] = test system: Jurkat T, LV-50, H-9 and Molt-3 cells; assay: Cell viability of Jurkat T, LV-50, H-9 and Molt-3 cells; format: cell-based; details: 10 μM, 24 hour
Protocol: FIG. 5 is a graph showing percent viability of Jurkat T, LV-50, H-9 and Molt 3 cells after exposure to 10 μM of compound 9d for a 24 hour period with error bars representing mean±standard deviation in three separate experiments;
as §2

human Jurkat T cells [4] = assay: DNA fragmentation by agarose gel electrophoresis; format: cell-based; details: Compound 9d 6 and 10 μM; melphalan 10 μM
human tumors = assay: Cytotoxicity, human tumor cell line panel (approximately 55 lines)
human Jurkat T cells [5] = assay: Apoptosis, fluorescence microscopy with acridine orange and ethidium bromide; details: for percentage of apoptotic cells: 17 hours, control 4.4%

SMILES: CCN(CC)CC(C)(C)C(=O)/C=C/c1ccc(Cl)cc1 [Compound 7]
- IC50 (L1210 cells): 6.39 µM
- activity relative to 5-fluorouracil (human WiDr colon cancer): 1.3 times
- IC50 (CEM cells): 1.94 µM
- TIL1210 (CEM cells) (CEM cells): 0.30
- TIP388 (CEM cells) (CEM cells): 0.88
- TIL1210 (Molt 4/C8 cells) (Molt 4/C8 cells): 1.13
- TIP388 (Molt 4/C8 cells) (Molt 4/C8 cells): 3.29
- TIP388 and TIL1210 compared with compound 1b (Molt 4/C8 cells; human T-lymphocytes): inferior TIP388 and TIL1210 values than compound 1b
- IC50 (Molt 4/C8 cells): 7.24 µM
- IC50 (P388 cells): 2.2 µM

SMILES: CCN1CCC(O)(/C=C/c2ccc(C)cc2)C(C(=O)/C=C/c2ccc(C)cc2)C1 (stereo not shown) [Compound 9d]
- IC50 (L1210 cells): 6.08 µM
- maximum ILS, murine P388 ([1]; 54 mg/kg): 5%
- activity in the murine P388 screen ([1]; in words): inactive
- % ILS (COLO 205; COLO 205, 200 mg/kg, increase in median time to reach a certain size): 28%
- percent reduction in median tumor weight (COLO 205; COLO 205, 200 mg/kg, percentage reduction of median tumor weight): 57%
- reduction in the weight of the human COLO 205 colon tumor (COLO 205; athymic mice, Example 5): 60%
- % ILS (SW-620): 9%
- % T/C (SW-620): 32%
- % ILS (NCI-H522): -2%
- % T/C (NCI-H522): 23%
- % ILS (LOX IMVI): 12%
- % T/C (LOX IMVI): 35%
- IC50 (human Jurkat T cells [2]): 3.46 µM
- sensitivity of cell lines [3]: Jurkat T cells were the most sensitive in its response, although all cell cultures were affected
- DNA ladder / DNA fragmentation (human Jurkat T cells [4]): did not show any DNA ladder; also recorded: no DNA fragmentation was detected
- IC50 (CEM cells): 14 µM
- TIL1210 (CEM cells) (CEM cells): 2.31
- TIP388 (CEM cells) (CEM cells): 6.69
- TIht (CEM cells) (CEM cells; IC50 T-lymphocytes (CEM)/IC50 human tumors): 2.80
- cytotoxicity to murine leukemic and human tumor cells vs T-lymphocytes (Molt 4/C8 cells): greater cytotoxicity to murine leukemic cells and human tumor cell lines than to T-lymphocytes
- TIL1210 (Molt 4/C8 cells) (Molt 4/C8 cells): 4.44
- TIP388 (Molt 4/C8 cells) (Molt 4/C8 cells): 12.85
- TIht (Molt 4/C8 cells) (Molt 4/C8 cells; IC50 T-lymphocytes (Molt 4/C8)/IC50 human tumors): 5.39
- IC50 (Molt 4/C8 cells): 27 µM
- IC50 (P388 cells): 2.1 µM
- selective/preferential cytotoxicity towards colon cancer cells (human tumors; human tumor screen): preferential cytotoxicity towards human colon cells; also recorded: preferential cytotoxicity to colon; also recorded: selective toxicity to human colon cancer cells
- IC50 (human tumors; read-out: human tumors IC50, mean graph midpoint, approximately 55 cell lines, hydrobromide salts used for 4a, 11a-e): 5.01 µM
- apoptotic index / apoptosis induction (in words) (human Jurkat T cells [5]): the apoptotic index increased almost two fold; also recorded: greater apoptotic index than melphalan; also recorded: more potent inducer of apoptosis; also recorded: potent apoptotic agent
- time after which apoptotic effects were detectable (human Jurkat T cells [5]): 3 h
- morphological features (human Jurkat T cells [5]; 6 μM, 17 h): characteristic blebbing and apoptotic bodies
- percentage of apoptotic cells (human Jurkat T cells [5]; 6 μM): 22%
- percentage of apoptotic cells (human Jurkat T cells [5]; 10 μM): 43%
- death of treated cells (human Jurkat T cells [5]; 48 hours): all the treated cells had died
